Reference: US20020137929A1, “1 - (3-heterocyclylphenyl) isothiourea, -isourea, -guanidine and -amidine herbicidal agents” (Intellectual Property Department, BASF Aktiengesellschaft, priority 1998, published 2002)

What was measured:
[1] = system: IPOHE (Morningglory, Ivyleaf); test: Postemergence herbicidal evaluation; assay type: in vivo, Ipomoea hederacea; settings: postemergence
How it was run: (§1)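 Visual 0-9 injury score (stand, vigor, malformation, size, chlorosis, appearance vs untreated) taken four to five weeks post-spray, averaged across repeat tests. Test plants about two weeks old; foliar spray of acetone/water (1:1) with 0.5% surfactant delivering ~0.0156-0.500 kg active/ha.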

[2] = system: ECHORC (Watergrass (Calif.)); test: Postemergence weed control under flooded paddy conditions; assay type: in vivo, Echinochloa oryzoides; settings: postemergence weeds, rated 3 to 4 weeks after treatment
How it was run: (§2)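 Containers holding 3–5 cm weeds and rice at 1.5–2.5 leaves are flooded to 1.5–3 cm above soil. Compound in 50/50 v/v aqueous/acetone is then added directly to the water, about 0.0313–0.500 kg/ha. Plants are kept in the greenhouse and rated 0–9 visually at 3–4 weeks.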

[3] = system: ECHORC (Watergrass (Calif.)); test: Preemergence weed control under flooded paddy conditions; assay type: in vivo, Echinochloa oryzoides; settings: rated 3-4 weeks after treatment
How it was run: (§3)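 Seeds or propagules sown in top 0.5 cm of silt loam soil, flooded 1.5 to 3 cm above surface throughout. Compound in 50/50 v/v aqueous/acetone pipetted into flood water at about 0.0313 to 0.500 kg/ha. Visual 0-9 rating versus control after three to four weeks in greenhouse.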

MOOVA (Monochoria) = test: as above; assay type: in vivo, Monochoria vaginalis; settings: rated 3-4 weeks after treatment
How it was run: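 Herbicidal effect is scored visually on a 0-9 scale against an untreated control, three to four weeks after compounds are pipetted into the flood water (1.5 to 3 cm deep) over seeds planted in silt loam at 0.5 cm depth. Rates: about 0.0313 to 0.500 kg/ha.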

[4] = system: IPOHE (Morningglory, Ivyleaf); test: Preemergence herbicidal evaluation; assay type: in vivo, Ipomoea hederacea; settings: preemergence, rated 4-5 weeks after treatment, 0-9 scale
How it was run: (§4)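 Seeds were planted in potting soil in cups, then sprayed preemergence with the test compound in aqueous acetone at about 0.0156 to 0.500 kg per hectare. Cups were kept under greenhouse conditions and visually rated 4–5 weeks after treatment on a 0–9 scale against an untreated control.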

SETVI (Foxtail, Green) [5] = test: Postemergence herbicidal evaluation; assay type: in vivo, Setaria viridis; settings: postemergence
How it was run: as §1

ZEAMX (Corn, Field) = test: Preemergence herbicidal evaluation; assay type: in vivo, Zea mays; settings: preemergence, rated 4-5 weeks after treatment, 0-9 scale
How it was run: as §4

CYPIR (Rice Flatsedge) = test: Preemergence weed control under flooded paddy conditions; assay type: in vivo, Cyperus iria; settings: rated 3-4 weeks after treatment
How it was run: as §3

ABUTH (Velvetleaf) = test: Preemergence herbicidal evaluation; assay type: in vivo, Abutilon theophrasti; settings: preemergence, rated 4-5 weeks after treatment, 0-9 scale
How it was run: as §4

SETVI (Foxtail, Green) [6] = test: Preemergence herbicidal evaluation; assay type: in vivo, Setaria viridis; settings: preemergence, rated 4-5 weeks after treatment, 0-9 scale
How it was run: as §4

GALAP (Galium) = test: Postemergence herbicidal evaluation; assay type: in vivo, Galium aparine; settings: postemergence
How it was run: as §1

ECHCG (Barnyardgrass) = test: Preemergence herbicidal evaluation; assay type: in vivo, Echinochloa crus-galli; settings: preemergence, rated 4-5 weeks after treatment, 0-9 scale
How it was run: as §4

[7] = system: TRZAWR (Wheat, Winter, cv Riband); test: Postemergence herbicidal evaluation; assay type: in vivo, Triticum aestivum; settings: postemergence
How it was run: as §1

[8] = system: SAGPY (Arrowhead (Pygmaea)); test: Postemergence weed control under flooded paddy conditions; assay type: in vivo, Sagittaria pygmaea; settings: postemergence weeds, rated 3 to 4 weeks after treatment
How it was run: as §2

SMILES: C#CCOC(=O)CC1SC(=Nc2cc(-n3c(=O)cc(C(F)(F)F)n(C)c3=O)c(F)cc2Cl)N(C)C1=O (stereo not shown) [Compound 90, 2-Propynyl 2-{{2-chloro-5-[3,6-dihydro-3-methyl-2,6-dioxo-4-(trifluoromethyl)-1(2H)-pyrimidinyl]-4-fluorophenyl}imino}-3-methyl-4-oxo-5-thiazolidineacetate]
- IPOHE herbicidal rating ([1]; rate 0.0158 kg/ha): 9.0
- IPOHE herbicidal rating ([1]; rate 0.0315 kg/ha): 9.0
- IPOHE herbicidal rating ([1]; rate 0.0630 kg/ha): 9.0
- Herbicidal rating ECHORC ([2]; Rate 0.0313 kg/ha): 0.0
- Herbicidal rating ECHORC ([2]; Rate 0.0625 kg/ha): 0.0
- Herbicidal rating ECHORC ([2]; Rate 0.1250 kg/ha): 0.0
- Herbicidal rating ECHORC ([2]; Rate 0.2500 kg/ha): 3.0
- ECHORC herbicidal effect rating ([3]; 0.0313 kg/ha): 0.0
- ECHORC herbicidal effect rating ([3]; 0.0625 kg/ha): 0.0
- ECHORC herbicidal effect rating ([3]; 0.1250 kg/ha): 0.0
- ECHORC herbicidal effect rating ([3]; 0.2500 kg/ha): 3.0
- MOOVA herbicidal effect rating (MOOVA (Monochoria); 0.0313 kg/ha): 9.0
- MOOVA herbicidal effect rating (MOOVA (Monochoria); 0.0625 kg/ha): 9.0
- MOOVA herbicidal effect rating (MOOVA (Monochoria); 0.1250 kg/ha): 9.0
- MOOVA herbicidal effect rating (MOOVA (Monochoria); 0.2500 kg/ha): 9.0
- IPOHE rating ([4]; 0.0313 kg/ha): 1.0
- IPOHE rating ([4]; 0.0625 kg/ha): 4.0
- IPOHE rating ([4]; 0.1250 kg/ha): 9.0
- IPOHE rating ([4]; 0.2500 kg/ha): 9.0
- SETVI herbicidal rating (SETVI (Foxtail, Green) [5]; rate 0.0158 kg/ha): 9.0
- SETVI herbicidal rating (SETVI (Foxtail, Green) [5]; rate 0.0315 kg/ha): 9.0
- SETVI herbicidal rating (SETVI (Foxtail, Green) [5]; rate 0.0630 kg/ha): 9.0
- ZEAMX rating (ZEAMX (Corn, Field); 0.0313 kg/ha): 0.0
- ZEAMX rating (ZEAMX (Corn, Field); 0.0625 kg/ha): 0.0
- ZEAMX rating (ZEAMX (Corn, Field); 0.1250 kg/ha): 7.0
- ZEAMX rating (ZEAMX (Corn, Field); 0.2500 kg/ha): 8.0
- CYPIR herbicidal effect rating (CYPIR (Rice Flatsedge); 0.0313 kg/ha): 0.0
- CYPIR herbicidal effect rating (CYPIR (Rice Flatsedge); 0.0625 kg/ha): 0.0
- CYPIR herbicidal effect rating (CYPIR (Rice Flatsedge); 0.1250 kg/ha): 1.0
- CYPIR herbicidal effect rating (CYPIR (Rice Flatsedge); 0.2500 kg/ha): 3.0
- ABUTH rating (ABUTH (Velvetleaf); 0.0313 kg/ha): 9.0
- ABUTH rating (ABUTH (Velvetleaf); 0.0625 kg/ha): 9.0
- ABUTH rating (ABUTH (Velvetleaf); 0.1250 kg/ha): 9.0
- ABUTH rating (ABUTH (Velvetleaf); 0.2500 kg/ha): 9.0
- SETVI rating (SETVI (Foxtail, Green) [6]; 0.0313 kg/ha): 0.0
- SETVI rating (SETVI (Foxtail, Green) [6]; 0.0625 kg/ha): 3.0
- SETVI rating (SETVI (Foxtail, Green) [6]; 0.1250 kg/ha): 9.0
- SETVI rating (SETVI (Foxtail, Green) [6]; 0.2500 kg/ha): 9.0
- GALAP herbicidal rating (GALAP (Galium); rate 0.0158 kg/ha): 5.0
- GALAP herbicidal rating (GALAP (Galium); rate 0.0315 kg/ha): 7.0
- GALAP herbicidal rating (GALAP (Galium); rate 0.0630 kg/ha): 7.0
- ECHCG rating (ECHCG (Barnyardgrass); 0.0313 kg/ha): 0.0
- ECHCG rating (ECHCG (Barnyardgrass); 0.0625 kg/ha): 0.0
- ECHCG rating (ECHCG (Barnyardgrass); 0.1250 kg/ha): 0.0
- ECHCG rating (ECHCG (Barnyardgrass); 0.2500 kg/ha): 3.0
- TRZAWR herbicidal rating ([7]; rate 0.0158 kg/ha): 5.5
- TRZAWR herbicidal rating ([7]; rate 0.0315 kg/ha): 7.0
- TRZAWR herbicidal rating ([7]; rate 0.0630 kg/ha): 7.5
- Herbicidal rating SAGPY ([8]; Rate 0.0313 kg/ha): 4.0
- Herbicidal rating SAGPY ([8]; Rate 0.0625 kg/ha): 6.0
- Herbicidal rating SAGPY ([8]; Rate 0.1250 kg/ha): 9.0
- Herbicidal rating SAGPY ([8]; Rate 0.2500 kg/ha): 9.0
